Assays:
Caspase-1 (Mus musculus) = biological target: T1, Caspase-1 (Mus musculus) (UniProt P29452); experiment: Binding affinity against mouse Caspase-1
T1 sequence (whole entry): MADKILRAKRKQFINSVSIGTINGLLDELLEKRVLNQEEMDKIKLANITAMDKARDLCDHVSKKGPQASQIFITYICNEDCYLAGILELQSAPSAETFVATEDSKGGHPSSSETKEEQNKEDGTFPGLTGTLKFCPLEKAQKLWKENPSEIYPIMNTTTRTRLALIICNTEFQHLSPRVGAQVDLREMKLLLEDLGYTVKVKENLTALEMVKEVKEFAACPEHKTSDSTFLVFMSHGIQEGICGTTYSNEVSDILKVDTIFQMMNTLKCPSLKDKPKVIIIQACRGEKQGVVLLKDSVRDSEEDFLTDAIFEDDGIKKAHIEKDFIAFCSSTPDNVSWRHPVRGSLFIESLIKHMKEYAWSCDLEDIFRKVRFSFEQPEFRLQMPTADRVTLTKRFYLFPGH

Jurkat = experiment: Inhibitory concentration for cellular activity in jurkat assay; type: functional, cell-based; conditions: Homo sapiens
Caspase-3 (Homo sapiens) = biological target: T2, Caspase-3 (Homo sapiens) (UniProt P42574); experiment: Binding affinity against Caspase-3
T2 sequence (whole entry): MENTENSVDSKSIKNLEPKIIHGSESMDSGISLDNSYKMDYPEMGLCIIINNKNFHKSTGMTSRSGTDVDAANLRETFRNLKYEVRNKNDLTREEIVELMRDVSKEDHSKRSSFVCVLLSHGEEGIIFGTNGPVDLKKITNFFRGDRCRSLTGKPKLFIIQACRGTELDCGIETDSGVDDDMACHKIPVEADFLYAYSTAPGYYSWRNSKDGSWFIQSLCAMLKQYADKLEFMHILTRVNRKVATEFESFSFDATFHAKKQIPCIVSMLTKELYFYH

Caspase-6 (Homo sapiens) = biological target: T3, Caspase-6 (Homo sapiens) (UniProt P55212); experiment: Binding affinity against Caspase-6
T3 sequence (whole entry): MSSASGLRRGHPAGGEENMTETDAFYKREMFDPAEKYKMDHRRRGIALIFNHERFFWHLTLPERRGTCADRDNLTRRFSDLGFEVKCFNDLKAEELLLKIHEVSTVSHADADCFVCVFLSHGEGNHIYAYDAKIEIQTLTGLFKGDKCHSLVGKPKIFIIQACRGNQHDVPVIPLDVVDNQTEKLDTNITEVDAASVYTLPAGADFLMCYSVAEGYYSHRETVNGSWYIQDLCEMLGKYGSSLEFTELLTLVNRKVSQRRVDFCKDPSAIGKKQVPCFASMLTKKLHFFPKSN

Caspase-8 (Homo sapiens) = Caspase-8 (Homo sapiens) (UniProt Q14790); experiment: Binding affinity against Caspase-8
Caspase-8 (Homo sapiens), sequence (Q14790 217-374 limits assumed): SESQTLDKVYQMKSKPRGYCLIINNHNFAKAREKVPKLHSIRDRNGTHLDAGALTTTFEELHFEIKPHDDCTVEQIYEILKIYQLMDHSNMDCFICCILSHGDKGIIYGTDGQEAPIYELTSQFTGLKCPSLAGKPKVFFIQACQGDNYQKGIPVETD
Caspase-8 (Homo sapiens), sequence (Q14790 385-479 limits assumed): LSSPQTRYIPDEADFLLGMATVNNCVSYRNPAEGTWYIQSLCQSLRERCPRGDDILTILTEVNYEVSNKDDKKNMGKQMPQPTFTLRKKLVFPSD

Structure (SMILES)	k3/ki (Caspase-1 (Mus musculus))	IC50 (Jurkat) [µM]	k3/ki (Caspase-3 (Homo sapiens))	k3/ki (Caspase-6 (Homo sapiens))	k3/ki (Caspase-8 (Homo sapiens))
COC(=O)c1cc(OCC(=O)[C@H](CC(=O)O)NC(=O)[C@@H](NC(=O)COc2cccc3ccccc23)C(C)C)no1	42500 1/m/s	71	144000 1/m/s	5800 1/m/s	6340 1/m/s
CC(C)[C@H](NC(=O)COc1cccc2ccccc12)C(=O)N[C@@H](CC(=O)O)C(=O)COc1ccnc(C(F)(F)F)n1	24800 1/m/s	37	114000 1/m/s	5150 1/m/s	3200 1/m/s
CC(C)[C@H](NC(=O)COc1cccc2ccccc12)C(=O)N[C@@H](CC(=O)O)C(=O)CSc1nc(-c2ccccc2)cs1	217 1/m/s	> 200	2730 1/m/s	0 1/m/s	0 1/m/s
CC(C)[C@H](NC(=O)COc1cccc2ccccc12)C(=O)N[C@@H](CC(=O)O)C(=O)COc1cccc2cccnc12	1260 1/m/s	> 200	4360 1/m/s	140 1/m/s	39 1/m/s
CC(C)[C@H](NC(=O)COc1cccc2ccccc12)C(=O)N[C@@H](CC(=O)O)C(=O)CSc1nccn1C	1200 1/m/s	> 200	11500 1/m/s	570 1/m/s	212 1/m/s
CC(C)[C@H](NC(=O)COc1cccc2ccccc12)C(=O)N[C@@H](CC(=O)O)C(=O)CSc1nc2ccccc2o1	0 1/m/s	> 200	0 1/m/s	–	0 1/m/s
CC(C)[C@H](NC(=O)COc1cccc2ccccc12)C(=O)N[C@@H](CC(=O)O)C(=O)CSc1nnnn1C	3630 1/m/s	> 200	34400 1/m/s	2150 1/m/s	6510 1/m/s
Cc1cc(OCC(=O)[C@H](CC(=O)O)NC(=O)[C@@H](NC(=O)COc2cccc3ccccc23)C(C)C)nc(C)n1	1330 1/m/s	> 200	7480 1/m/s	903 1/m/s	367 1/m/s
CC(C)c1cc(OCC(=O)[C@H](CC(=O)O)NC(=O)[C@@H](NC(=O)COc2cccc3ccccc23)C(C)C)no1	3670 1/m/s	> 200	21800 1/m/s	220 1/m/s	279 1/m/s
CC(C)[C@H](NC(=O)COc1cccc2ccccc12)C(=O)N[C@@H](CC(=O)O)C(=O)CSc1ncc[nH]1	173 1/m/s	> 200	850 1/m/s	22 1/m/s	0 1/m/s
CC(C)[C@H](NC(=O)COc1cccc2ccccc12)C(=O)N[C@@H](CC(=O)O)C(=O)CSc1ccccn1	0 1/m/s	–	348 1/m/s	0 1/m/s	0 1/m/s
CC(C)[C@H](NC(=O)COc1cccc2ccccc12)C(=O)N[C@@H](CC(=O)O)C(=O)COn1nnc2ccccc21	28300 1/m/s	> 200	121000 1/m/s	8530 1/m/s	14500 1/m/s
CC(C)[C@H](NC(=O)COc1cccc2ccccc12)C(=O)N[C@@H](CC(=O)O)C(=O)COc1nc2ccccc2[nH]1	41 1/m/s	> 200	958 1/m/s	0 1/m/s	2 1/m/s
CC(C)[C@H](NC(=O)COc1cccc2ccccc12)C(=O)N[C@@H](CC(=O)O)C(=O)CSc1nc2ccccc2[nH]1	168 1/m/s	> 200	1770 1/m/s	25 1/m/s	10 1/m/s
Cc1cc(C)nc(OCC(=O)[C@H](CC(=O)O)NC(=O)[C@@H](NC(=O)COc2cccc3ccccc23)C(C)C)n1	10 1/m/s	–	283 1/m/s	0 1/m/s	0 1/m/s
CC(C)[C@H](NC(=O)COc1cccc2ccccc12)C(=O)N[C@@H](CC(=O)O)C(=O)COn1nnc2ccccc2c1=O	45400 1/m/s	137	169000 1/m/s	44000 1/m/s	18200 1/m/s
CC(C)[C@H](NC(=O)COc1cccc2ccccc12)C(=O)N[C@@H](CC(=O)O)C(=O)CSc1nc(-c2ccccc2)c(-c2ccccc2)o1	200 1/m/s	> 200	2010 1/m/s	0 1/m/s	218 1/m/s
CC(C)[C@H](NC(=O)COc1cccc2ccccc12)C(=O)N[C@@H](CC(=O)O)C(=O)CSc1nc[nH]n1	115 1/m/s	> 200	401 1/m/s	17 1/m/s	0 1/m/s
CC(C)[C@H](NC(=O)COc1cccc2ccccc12)C(=O)N[C@@H](CC(=O)O)C(=O)COc1nccc2ccccc12	360 1/m/s	106	1310 1/m/s	462 1/m/s	177 1/m/s
CC(C)[C@H](NC(=O)COc1cccc2ccccc12)C(=O)N[C@@H](CC(=O)O)C(=O)COc1[nH]cnc2nncc1-2	273 1/m/s	161	906 1/m/s	143 1/m/s	107 1/m/s
CC(C)[C@H](NC(=O)COc1cccc2ccccc12)C(=O)N[C@@H](CC(=O)O)C(=O)COc1cc(C(F)(F)F)ncn1	479 1/m/s	> 200	1750 1/m/s	156 1/m/s	0 1/m/s
CC(C)[C@H](NC(=O)COc1cccc2ccccc12)C(=O)N[C@@H](CC(=O)O)C(=O)CSc1nccc(C(F)(F)F)n1	0 1/m/s	> 200	0 1/m/s	0 1/m/s	0 1/m/s
CC(C)[C@H](NC(=O)COc1cccc2ccccc12)C(=O)N[C@@H](CC(=O)O)C(=O)COc1cc(C(F)(F)F)nn1-c1ccccc1	7570 1/m/s	28	71100 1/m/s	23900 1/m/s	2270 1/m/s
CC(C)[C@H](NC(=O)COc1cccc2ccccc12)C(=O)N[C@@H](CC(=O)O)C(=O)COc1ccncn1	0 1/m/s	> 200	0 1/m/s	0 1/m/s	0 1/m/s
CC(C)[C@H](NC(=O)COc1cccc2ccccc12)C(=O)N[C@@H](CC(=O)O)C(=O)CSc1nnnn1-c1ccccc1	400 1/m/s	153	19200 1/m/s	224 1/m/s	0 1/m/s
CC(C)[C@H](NC(=O)COc1cccc2ccccc12)C(=O)N[C@@H](CC(=O)O)C(=O)COc1cc(C(F)(F)F)n(C)n1	9400 1/m/s	46	35500 1/m/s	509 1/m/s	295 1/m/s
CC(C)[C@H](NC(=O)COc1cccc2ccccc12)C(=O)N[C@@H](CC(=O)O)C(=O)CSc1nc(-c2ccccc2)no1	1190 1/m/s	102	38100 1/m/s	975 1/m/s	3060 1/m/s
CC(C)[C@H](NC(=O)COc1cccc2ccccc12)C(=O)N[C@@H](CC(=O)O)C(=O)COc1cncc2ccccc12	0 1/m/s	166	0 1/m/s	0 1/m/s	0 1/m/s
